Patent publication US8163661B2, “Luminescence measurement system” (Olympus Corporation, priority 2007, dated 2012)
Read-outs that look alike come from different tables or passages of the source. Blank lines part the entries; values can stand above or below the molecule they belong to.

How the values were obtained:
[1] = tested on: intercellular ATP; details: apoptosis induced by STS; cited from earlier work
[2] = tested on: Yaeyama luciferase (Yaeyama Hime firefly, Luciola filiformis yayeyamana; DNA Sequence No. 1); test: Km value of Yaeyama luciferase relative to D-luciferin and ATP (luminometer, photon count); format: biochemical; details: 8 mM MgSO4, 0.1M Tris-HCl pH 8.0
Protocol: (§1) As for the blank, the buffer described above was employed. FIG. 6 illustrates the ultraviolet/visible light absorption spectrum of […].
(§2) Then, in order to calculate the concentration of ATP, the ultraviolet/visible light absorption spectrum of ATP was measured. In this measurement, the spectrum was measured using a diluted (by 2000 times) solution (in 0.1M Citrate/0.2M Na2HPO4 buffer, pH=7.0) of ATP stock solution (about 100 mM). As for the blank, the buffer described above was employed. FIG. 7 illustrates the ultraviolet/visible light absorption spectrum of ATP.
(§3) (Experiment Method 2: Purification of Various Kinds of Luciferase)
(§4) The purification of luciferase was performed according to the following procedure after establishing a luciferase-purification system utilizing affinity chromatography.
(§5) (Procedure of Transfection of Luciferase Expression Vector to Coli Bacillus)
(§6) First of all, 0.5 μL of luciferase expression vector was introduced into 50 μL of coli bacillus (JM109(DE3)). Then, the resultant liquid was subjected to a thermostatic treatment consisting of ice-cooling for 10 minutes, heating at 42° C. for one minute and ice-cooling for two minutes. Then, 2 μL of the resultant coli bacillus solution was added to 1 mL of an SOC culture medium.
(§7) Subsequently, the resultant solution of coli bacillus/SOC culture medium mixture was subjected to shaking at 37° C. for 20 minutes and to incubation. Then, 100 μL of the resultant solution was streaked onto an LB culture medium plate (Ampicillin 100 μg/mL+) and subjected to incubation overnight at 37° C.
(§8) (Purification of Luciferase by Means of Affinity Chromatography)
(§9) Then, the coli bacillus was fractured to obtain a raw extract, from which luciferase was purified by means of affinity chromatography.
(§10) Namely, first of all, a suspension of coli bacillus was subjected to centrifugal separation at 15000 rpm for 5 minutes to recover the pellets of coli bacillus, which was then suspended in 10 mL of TBS cooled to 4° C. Subsequently, by making use of French Pressure Cell, the fungus body was fractured. The resultant fungus body-fractured liquid was subjected to centrifugal separation (15000 rpm, 10 minutes) to remove settled residues and to recover a supernatant liquid.
(§11) Subsequently, 2 mL of TBS was added to a column having 2 mL of bed volume and subjected to filtration. Then, 500 μL of a Ni-Agar suspension and 2 mL of TBS were added to the column and the TBS was allowed to gravitationally drop (column equilibration). The supernatant liquid thus recovered was added to the column and allowed to gravitationally drop. Incidentally, the operation until the drop of the supernatant liquid was completed was performed inside a refrigerator at a temperature of 4° C. […]

[3] = tested on: ELuc (Emerald Luc) luciferase (originating from Hikari Kometsuki); test: Km value of ELuc luciferase relative to D-luciferin and ATP (luminometer, photon count); format: biochemical; details: 8 mM MgSO4, 0.1M Tris-HCl pH 8.0
Protocol: as §1, §2, §3, §4, §5, §6, §7, §8, §9, §10, §11

[4] = tested on: CBG luciferase (originating from Hikari Kometsuki); test: Km value of CBG luciferase relative to D-luciferin and ATP (luminometer, photon count); format: biochemical; details: 8 mM MgSO4, 0.1M Tris-HCl pH 8.0
Protocol: as §1, §2, §3, §4, §5, §6, §7, §8, §9
(§12) Namely, first of all, a suspension of coli bacillus was subjected to centrifugal separation at 15000 rpm for 5 minutes to recover the pellets of coli bacillus, which was then suspended in 10 mL of TBS cooled to 4° C. Subsequently, by making use of French Pressure Cell, the fungus body was fractured. […]

[5] = tested on: CBR luciferase (originating from Hikari Kometsuki); test: Km value of CBR luciferase relative to D-luciferin and ATP (luminometer, photon count); format: biochemical; details: 8 mM MgSO4, 0.1M Tris-HCl pH 8.0
Protocol: as §1, §2, §3, §4, §5, §6, §7, §8, §9, §12

[6] = biological target: GL3 luciferase (originating from firefly) (Photinus pyralis, UniProt P08659, K549A/L550V/N119G/N50D/S548I); test: Km value of GL3 luciferase relative to D-luciferin and ATP (luminometer, photon count); format: biochemical; details: read-out: Km value of GL3 relative to ATP, 10-1280 μM ATP, 1 mM D-luciferin, 8 mM MgSO4, 0.1M Tris-HCl pH 8.0
Protocol: as §1, §2, §3, §4, §5
as §6, with “medium. […]” for “medium.”

[7] = substrate: Nc1ncnc2c1ncn2[C@@H]1O[C@H](COP(=O)(O)OP(=O)(O)OP(=O)(O)O)[C@@H](O)[C@H]1O; test: purified protein, by the assay type; format: biochemical, Luciola cruciata; details: 10-1280 μM ATP, 1 mM D-luciferin, 8 mM MgSO4, 0.1M Tris-HCl pH 8.0
Protocol: as §1, §2
By making use of the absorbency (259 nm, 0.359±0.004, n=10) obtained from the spectrum of FIG. 7, the concentration of the ATP stock solution was calculated (ATP: λmax=259 nm, ε=15400, pH=7.0). As a result of the calculation, the concentration of the ATP stock solution was found as being 46.6 mM. […]
Subsequently, the elute was moved 400 μL by 400 μL to a centrifugal concentration tube (SUPREC™-02, available from TaKaRa Co., Ltd. (exclusion limit molecular weight: 30,000)) and then subjected to centrifugal separation (5000 rpm, 30 minutes) until the elute was concentrated to about 100 μL. Thereafter, the absorbency of the concentrated elute was measured by means of a plate reader and the concentration of luciferase was calculated from the calibration curve which was prepared by making use of BSA. […]

[8] = substrate: O=C(O)[C@H]1CSC(c2nc3ccc(O)cc3s2)=N1; test: purified protein, by the assay type; details: 5-640 μM D-luciferin, 4 mM ATP, 8 mM MgSO4, 0.1M Tris-HCl pH 8.0
[9] = Km value of luciferase relative to ATP (luminometer photon count, Example 2); format: biochemical
Protocol: (Experiment Method 4: Calculation of Km Value of Various Kind of Luciferase Relative to ATP)
Then, a 0.1M Tris-HCl (pH=8.0) solution of 100 μg/ml luciferase was prepared. The ATP solutions having the aforementioned concentrations were respectively aliquoted to a vessel having 96 wells, thus creating wells each containing 50 μl of the ATP solution.
Then, the luciferase solution was connected with a standard pump of luminometer, after which a program was prepared so as to initiate the measurement concurrent with the addition of 50 μl of the luciferase solution to each of the wells.
Subsequently, the program was started to measure the photon-count value at each ATP concentration. Incidentally, the measurement was repeated five times at each concentration of ATP.
Based on the results obtained, Lineweaver-Burk plot and Hanes-Woolf plot were prepared.

[10] = Luminescence pattern measured with a luminometer (time to peak luminescence after addition of luciferin); format: biochemical
Excerpt: Further, with respect to the luminescence pattern obtained from the measurement using a luminometer also, the results obtained from the luciferase originated from Hikari Kometsuki were found different from the results obtained from the firefly-derived luciferase.
Although data are not shown herein, the results obtained from the Luciferase originated from Hikari Kometsuki were found different from the results obtained from the firefly-derived luciferase with respect also to the luminescence pattern obtained from the measurement using a luminometer.

GL3 luciferase (originating from firefly), sequence (P08659 whole entry N50D/N119G/S548I/K549A/L550V): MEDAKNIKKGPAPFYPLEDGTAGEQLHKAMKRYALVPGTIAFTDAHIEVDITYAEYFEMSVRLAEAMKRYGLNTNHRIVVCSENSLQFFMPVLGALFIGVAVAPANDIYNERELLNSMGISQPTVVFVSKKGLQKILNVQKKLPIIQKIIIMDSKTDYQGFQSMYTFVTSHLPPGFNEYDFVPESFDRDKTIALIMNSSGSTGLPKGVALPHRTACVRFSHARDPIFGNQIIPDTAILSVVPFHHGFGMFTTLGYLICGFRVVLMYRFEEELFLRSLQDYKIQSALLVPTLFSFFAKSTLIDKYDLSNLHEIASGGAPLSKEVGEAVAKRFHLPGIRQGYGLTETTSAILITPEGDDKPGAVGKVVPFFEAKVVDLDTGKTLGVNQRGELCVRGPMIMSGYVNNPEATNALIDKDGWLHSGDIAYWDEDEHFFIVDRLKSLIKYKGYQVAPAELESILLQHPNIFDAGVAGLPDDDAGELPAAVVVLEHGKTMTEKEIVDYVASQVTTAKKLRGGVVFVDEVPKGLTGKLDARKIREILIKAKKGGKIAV

Molecule: CN[C@@H]1C[C@H]2O[C@@](C)([C@@H]1OC)n1c3ccccc3c3c4c(c5c6ccccc6n2c5c31)C(=O)NC4 [STS, Staurosporine]
- intercellular ATP concentration at the initial stage of apoptosis [1]: caused to increase

Molecule: Nc1ncnc2c1ncn2[C@@H]1O[C@H](COP(=O)(O)OP(=O)(O)OP(=O)(O)O)[C@@H](O)[C@H]1O [ATP]
- Km ([2]; Hanes-Woolf plot, 10-1280 μM ATP, 1 mM D-luciferin, read-out: Km value of Yaeyama relative to ATP): 400 µM
- Km ([2]; Lineweaver-Burk plot, 10-1280 μM ATP, 1 mM D-luciferin, read-out: Km value of Yaeyama relative to ATP): 400 µM
- Km ([3]; Hanes-Woolf plot, 10-1280 μM ATP, 1 mM D-luciferin, read-out: Km value of ELuc relative to ATP): 250 µM
- Km ([3]; Lineweaver-Burk plot, 10-1280 μM ATP, 1 mM D-luciferin, read-out: Km value of ELuc relative to ATP): 364 µM
- Km ([4]; Hanes-Woolf plot, 10-1280 μM ATP, 1 mM D-luciferin, read-out: Km value of CBG relative to ATP): 290 µM
- Km ([5]; Hanes-Woolf plot, 10-1280 μM ATP, 1 mM D-luciferin, read-out: Km value of CBR relative to ATP): 130 µM
- Km ([5]; Lineweaver-Burk plot, 10-1280 μM ATP, 1 mM D-luciferin, read-out: Km value of CBR relative to ATP): 110 µM
- Km ([6]; Hanes-Woolf plot): 200 µM
- Km ([6]; Lineweaver-Burk plot): 200 µM

Molecule: O=C(O)[C@H]1CSC(c2nc3ccc(O)cc3s2)=N1 [D-luciferin]
- Km ([2]; read-out: Km value of Yaeyama relative to D-luciferin, Hanes-Woolf plot, 5-640 μM D-luciferin, 4 mM ATP): 100 µM
- Km ([2]; read-out: Km value of Yaeyama relative to D-luciferin, Lineweaver-Burk plot, 5-640 μM D-luciferin, 4 mM ATP): 100 µM
- Km ([3]; read-out: Km value of ELuc relative to D-luciferin, Hanes-Woolf plot, 5-640 μM D-luciferin, 4 mM ATP): 15 µM
- Km ([3]; read-out: Km value of ELuc relative to D-luciferin, Lineweaver-Burk plot, 5-640 μM D-luciferin, 4 mM ATP): 15 µM
- Km ([4]; read-out: Km value of CBG relative to D-luciferin, Hanes-Woolf plot, 5-640 μM D-luciferin, 4 mM ATP): 10.5 µM
- Km ([4]; read-out: Km value of CBG relative to D-luciferin, Lineweaver-Burk plot, 5-640 μM D-luciferin, 4 mM ATP): 10.5 µM
- Km ([5]; read-out: Km value of CBR relative to D-luciferin, Lineweaver-Burk plot, 5-640 μM D-luciferin, 4 mM ATP): 36.4 µM

B1: Genji luciferase (Genji firefly, Luciola cruciata) (Nipponoluciola cruciata) (protein)
chain: MENMENDENIVVGPKPFYPIEEGSAGTQLRKYMERYAKLGAIAFTNAVTGVDYSYAEYLEKSCCLGKALQNYGLVVDGRIALCSENCEEFFIPVIAGLFIGVGVAPTNEIYTLRELVHSLGISKPTIVFSSKKGLDKVITVQKTVTTIKTIVILDSKVDYRGYQCLDTFIKRNTPPGFQASSFKTVEVDRKEQVALIMNSSGSTGLPKGVQLTHENTVTRFSHARDPIYGNQVSPGTAVLTVVPFHHGFGMFTTLGYLICGFRVVMLTKFDEETFLKTLQDYKCTSVILVPTLFAILNKSELLNKYDLSNLVEIASGGAPLSKEVGEAVARRFNLPGVRQGYGLTETTSAIIITPEGDDKPGASGKVVPLFKAKVIDLDTKKSLGPNRRGEVCVKGPMLMKGYVNNPEATKELIDEEGWLHTGDIGYYDEEKHFFIVDRLKSLIKYKGYQVPPAELESVLLQHPSIFDAGVAGVPDPVAGELPGAVVVLESGKNMTEKEVMDYVASQVSNAKRLRGGVRFVDEVPKGLTGKIDGRAIREILKKPVAKM
- Km ([7]; other: Hanes-Woolf plot): 500 µM
- Km ([7]; other: Lineweaver-Burk plot): 500 µM
- Km ([8]; other: Hanes-Woolf plot): 75.0 µM
- Km ([8]; other: Lineweaver-Burk plot): 75.0 µM

- affinity to ATP as compared with other kinds of luciferase [9]: relatively low in affinity to ATP
B2: Yaeyama: luciferase originated from Yaeyama Hime firefly (Luciola filiformis yayeyamana), DNA sequence of Sequence No. 1 (protein)
chain: MEMEKEENVVYGPQPFYPIEAGSAGIQLHKYMHQYAQLGAIAFSNALTGVDISYQEYFDITCRLAEAMKNYGMTQEGRIALCSENCEEFFIPVVAGLYIGVGVAPTNEIYTLRELNHSLGIAEPTIVFSSRKGLPKVLEVQKNVTCIKTIVILDSKVNFGGYDCVETFIKKNVPSGFQPSSFKPMDVKNRKEHLALLMNSSGSTGLPKGVQITHEGTVTRFSHAKDPIYGNQVSPGTAILTVVPFHHGFGMFTTLGYFACGYRVVMLTKFDEELFLKTLQDYKCTSVILVPTLFGILNKSELIDKFDLSNLTEIASGGAPLAKEVGEAVARRFNLPGIRQGYGLTETTSAFIITPEGDDKPGASGKVVPLFKVKVIDLDTKKTLGVNRRGEICVKGPSLMKGYVRNPEATKEIIDDEGWMHTGDIGYYDEDEHFFIVDRLKSLIKYKGYQVPPAELESVLLQHPNIFDAGVAGVPDPEAGELPGAVVVLEKGKTMTEKQIVEYVNSQVVNHKRLRGGVRFVDEVPKGLTGKIDAKVIREILKKPQSKM
modifications: Luciola filiformis yayeyamana
- time of peak luminescence intensity after the addition of luciferin [10]: 0.5 to 1 s
